Key:
[1] = molecular target: T1, Glucose-dependent insulinotropic receptor (Homo sapiens, UniProt Q8TDV5); assay: Agonist activity at human GPR119 expressed in HEK293 cells assessed as cAMP accumulation after 30 mins; type: functional, cell-based
T1 sequence (Q8TDV5 whole entry): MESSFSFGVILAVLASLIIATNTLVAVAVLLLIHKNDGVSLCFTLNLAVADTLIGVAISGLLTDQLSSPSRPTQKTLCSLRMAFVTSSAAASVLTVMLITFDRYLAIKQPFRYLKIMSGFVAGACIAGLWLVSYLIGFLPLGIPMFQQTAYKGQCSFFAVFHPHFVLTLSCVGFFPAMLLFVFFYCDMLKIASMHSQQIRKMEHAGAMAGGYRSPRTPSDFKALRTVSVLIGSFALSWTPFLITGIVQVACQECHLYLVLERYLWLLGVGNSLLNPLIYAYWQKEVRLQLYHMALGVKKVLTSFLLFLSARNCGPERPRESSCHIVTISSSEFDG

[2] = Intrinsic clearance in human liver microsomes; type: ADME; conditions: read-out: CLH
[3] = Intrinsic clearance in rat liver microsomes; type: ADME; conditions: read-out: CLH
[4] = molecular target: T2, Glucose-dependent insulinotropic receptor (Homo sapiens) (UniProt Q8TDV5); assay: Agonist activity at human GPR119 expressed in HEK293 cells assessed as cAMP accumulation after 30 mins relative to isopropyl 4-(1-(4-(methylsulfonyl)phenyl)-1H-pyrazolo[3,4-d]pyrimidin-4-yloxy)piperidine-1-carboxylate; type: functional, cell-based
T2 sequence (whole entry): T1 sequence (Q8TDV5 whole entry)

[5] = molecular target: T3, Nuclear receptor subfamily 1 group I member 2 (Homo sapiens, UniProt O75469); assay: Activation of human PXR
T3 sequence (O75469 whole entry): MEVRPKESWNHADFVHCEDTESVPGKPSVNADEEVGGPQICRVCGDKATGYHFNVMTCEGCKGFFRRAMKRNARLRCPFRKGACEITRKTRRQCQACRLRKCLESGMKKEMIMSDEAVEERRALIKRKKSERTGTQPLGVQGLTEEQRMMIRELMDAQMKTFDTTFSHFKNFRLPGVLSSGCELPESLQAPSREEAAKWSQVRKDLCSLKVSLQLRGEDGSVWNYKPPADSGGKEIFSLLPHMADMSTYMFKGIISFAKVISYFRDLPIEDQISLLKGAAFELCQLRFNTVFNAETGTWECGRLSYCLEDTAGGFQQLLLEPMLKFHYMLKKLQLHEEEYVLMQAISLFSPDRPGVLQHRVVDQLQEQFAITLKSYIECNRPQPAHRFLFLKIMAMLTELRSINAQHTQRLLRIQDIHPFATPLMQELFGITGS

[6] = molecular target: T4, Glucose-dependent insulinotropic receptor (Rattus norvegicus, UniProt Q7TQN8); assay: Agonist activity at rat GPR119 assessed as cAMP accumulation; type: functional
T4 sequence (Q7TQN8 whole entry): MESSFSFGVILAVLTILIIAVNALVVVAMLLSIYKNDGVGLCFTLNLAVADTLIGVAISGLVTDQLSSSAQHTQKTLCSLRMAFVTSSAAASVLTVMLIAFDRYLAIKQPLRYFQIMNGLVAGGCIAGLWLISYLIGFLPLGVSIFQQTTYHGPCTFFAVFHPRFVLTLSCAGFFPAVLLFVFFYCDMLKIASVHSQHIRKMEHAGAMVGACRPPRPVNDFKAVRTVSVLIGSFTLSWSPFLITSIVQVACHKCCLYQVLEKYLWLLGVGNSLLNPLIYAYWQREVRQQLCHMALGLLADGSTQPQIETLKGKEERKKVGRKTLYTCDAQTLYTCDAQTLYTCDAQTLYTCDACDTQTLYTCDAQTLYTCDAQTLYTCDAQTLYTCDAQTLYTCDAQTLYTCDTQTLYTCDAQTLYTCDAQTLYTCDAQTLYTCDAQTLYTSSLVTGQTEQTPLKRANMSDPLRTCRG

[7] = Inhibition of Cytochrome P450 (unknown origin); type: ADME; conditions: human
[8] = molecular target: T5, G-protein coupled receptor 119 (Macaca fascicularis, UniProt G7Q3P2); assay: Agonist activity at cynomolgus monkey GPR119 assessed as cAMP accumulation; type: functional
T5 sequence (G7Q3P2 whole entry): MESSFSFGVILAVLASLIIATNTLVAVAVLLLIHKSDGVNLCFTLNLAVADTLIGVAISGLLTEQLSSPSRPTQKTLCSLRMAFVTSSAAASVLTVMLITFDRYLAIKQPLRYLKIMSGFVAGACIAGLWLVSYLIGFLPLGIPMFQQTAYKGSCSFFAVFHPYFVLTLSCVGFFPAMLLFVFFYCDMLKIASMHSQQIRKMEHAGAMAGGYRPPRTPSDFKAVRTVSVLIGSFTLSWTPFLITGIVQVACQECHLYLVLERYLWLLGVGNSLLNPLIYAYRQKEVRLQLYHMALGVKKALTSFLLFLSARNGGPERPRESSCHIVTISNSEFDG

[9] = Clearance in rat at 0.5 mg/kg, iv; type: ADME, organism-based; parameters: dose 0.5 mg/kg, route intravenous; conditions: in vivo
[10] = Plasma protein binding in human; type: ADME, cell-free; conditions: read-out: PPB
[11] = Volume of distribution at steady state in cynomolgus monkey at 0.5 mg/kg, iv; type: ADME, organism-based, Macaca fascicularis; parameters: dose 0.5 mg/kg, route intravenous; conditions: in vivo, read-out: Vdss
[12] = Oral bioavailability in cynomolgus monkey at 2 mg/kg; type: ADME, organism-based, Macaca fascicularis; conditions: in vivo
[13] = Plasma protein binding in cynomolgus monkey; type: ADME, cell-free, Macaca fascicularis; conditions: read-out: PPB
[14] = molecular target: T6, G-protein coupled receptor 119 (Macaca fascicularis) (UniProt G7Q3P2); assay: Agonist activity at cynomolgus monkey GPR119 assessed as cAMP accumulation relative to control; type: functional
T6 sequence (whole entry): T5 sequence (G7Q3P2 whole entry)

[15] = Half life in cynomolgus monkey at 0.5 mg/kg, iv; type: ADME, organism-based, Macaca fascicularis; parameters: dose 0.5 mg/kg, route intravenous; conditions: in vivo
[16] = Oral bioavailability in rat at 2 mg/kg; type: ADME, organism-based; conditions: in vivo
[17] = Half life in rat at 0.5 mg/kg, iv; type: ADME, organism-based; parameters: dose 0.5 mg/kg, route intravenous; conditions: in vivo
[18] = Clearance in cynomolgus monkey at 0.5 mg/kg, iv; type: ADME, organism-based, Macaca fascicularis; parameters: dose 0.5 mg/kg, route intravenous; conditions: in vivo
[19] = Volume of distribution at steady state in rat at 0.5 mg/kg, iv; type: ADME, organism-based; parameters: dose 0.5 mg/kg, route intravenous; conditions: in vivo, read-out: Vdss
[20] = Intrinsic clearance in human liver microsomes at 1 uM after 30 mins; type: ADME; conditions: read-out: CLH
[21] = Metabolic stability in human liver microsomes assessed as compound remaining at 1 uM after 30 mins; type: ADME; conditions: read-out: Stability
[22] = molecular target: T7, Glucose-dependent insulinotropic receptor (Mus musculus, UniProt Q7TQP3); assay: Agonist activity at mouse GPR119 assessed as cAMP accumulation; type: functional
T7 sequence (Q7TQP3 whole entry): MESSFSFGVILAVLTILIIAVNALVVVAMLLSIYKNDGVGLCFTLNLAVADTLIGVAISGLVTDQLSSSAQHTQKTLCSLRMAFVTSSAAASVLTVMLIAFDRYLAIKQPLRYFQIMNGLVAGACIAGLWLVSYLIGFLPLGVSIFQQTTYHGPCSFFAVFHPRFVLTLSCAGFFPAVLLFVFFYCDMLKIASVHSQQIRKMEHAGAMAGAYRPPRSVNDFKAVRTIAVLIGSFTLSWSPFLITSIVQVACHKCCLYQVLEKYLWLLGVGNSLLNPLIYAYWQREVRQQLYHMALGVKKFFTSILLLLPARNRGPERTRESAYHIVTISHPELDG

[23] = molecular target: Bile salt export pump (Homo sapiens, UniProt O95342); assay: Binding affinity to BSEP (unknown origin)
Bile salt export pump, sequence (O95342 whole entry): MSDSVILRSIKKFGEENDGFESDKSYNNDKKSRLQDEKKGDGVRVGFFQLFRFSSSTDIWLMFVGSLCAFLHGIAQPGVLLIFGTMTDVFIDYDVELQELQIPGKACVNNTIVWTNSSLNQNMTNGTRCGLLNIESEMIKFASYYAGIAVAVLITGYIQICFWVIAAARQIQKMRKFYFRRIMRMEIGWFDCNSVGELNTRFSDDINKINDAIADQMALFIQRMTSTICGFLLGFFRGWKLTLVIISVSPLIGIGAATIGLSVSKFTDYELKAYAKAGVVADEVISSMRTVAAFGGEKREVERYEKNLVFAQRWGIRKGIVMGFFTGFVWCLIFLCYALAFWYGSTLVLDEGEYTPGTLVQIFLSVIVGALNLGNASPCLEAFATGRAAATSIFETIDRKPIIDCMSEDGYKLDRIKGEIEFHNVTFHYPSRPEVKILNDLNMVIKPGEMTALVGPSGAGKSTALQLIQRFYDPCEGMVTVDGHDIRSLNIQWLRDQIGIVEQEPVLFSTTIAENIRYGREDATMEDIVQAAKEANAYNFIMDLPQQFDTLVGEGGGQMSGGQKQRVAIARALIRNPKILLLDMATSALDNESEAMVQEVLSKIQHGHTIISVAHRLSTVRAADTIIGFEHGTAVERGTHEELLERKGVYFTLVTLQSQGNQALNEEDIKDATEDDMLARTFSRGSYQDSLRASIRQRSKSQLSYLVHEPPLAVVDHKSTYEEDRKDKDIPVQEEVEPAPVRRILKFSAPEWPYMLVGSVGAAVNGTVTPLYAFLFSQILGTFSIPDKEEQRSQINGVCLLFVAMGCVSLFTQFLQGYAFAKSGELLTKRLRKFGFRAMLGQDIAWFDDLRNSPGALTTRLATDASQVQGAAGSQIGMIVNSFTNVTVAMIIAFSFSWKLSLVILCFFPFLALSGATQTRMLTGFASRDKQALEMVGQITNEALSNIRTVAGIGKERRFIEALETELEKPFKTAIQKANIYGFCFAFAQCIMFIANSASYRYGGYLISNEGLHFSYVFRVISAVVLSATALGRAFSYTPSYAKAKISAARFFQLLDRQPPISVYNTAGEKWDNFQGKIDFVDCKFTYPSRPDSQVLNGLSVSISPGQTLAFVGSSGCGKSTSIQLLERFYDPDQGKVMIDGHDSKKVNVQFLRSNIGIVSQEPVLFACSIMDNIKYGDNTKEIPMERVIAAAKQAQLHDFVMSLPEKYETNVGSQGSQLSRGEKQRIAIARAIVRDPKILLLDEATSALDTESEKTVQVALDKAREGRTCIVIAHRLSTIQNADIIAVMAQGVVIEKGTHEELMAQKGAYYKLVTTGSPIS

[24] = Clearance in iv dosed rat; type: ADME, organism-based; conditions: in vivo
[25] = Metabolic stability in rat liver microsomes assessed as compound remaining at 1 uM after 30 mins; type: ADME; conditions: read-out: Stability

Structure (SMILES)	EC50 [1]	microsomal CLint [3]	Efficacy [4]	other results
O=C1c2cc(C3CC3)nc(Oc3cccc(NS(=O)(=O)c4ccc(Cl)cc4)c3)c2C(=O)N1C1CC1	0.045 µM	63 µL/min/mg	99%	microsomal CLint [2]: 27 µL/min/mg
Cc1cc2c(c(Oc3cccc(NS(=O)(=O)c4ccc(Cl)cc4)c3)n1)C(=O)N(c1ccccc1)C2=O	0.299 µM	–	102%	–
Cc1cc2c(c(Oc3cccc(N(C)S(=O)(=O)c4ccc(Cl)cc4)c3)n1)C(=O)N(C(C)C)C2=O	0.011 µM	> 400 µL/min/mg	–	–
CCN1C(=O)c2cc(C)nc(Oc3cccc(NS(=O)(=O)c4ccc(Cl)cc4)c3)c2C1=O	0.011 µM	–	120%	–
Cc1cc2c(c(Oc3ccc(C)c(NS(=O)(=O)c4ccc(Cl)cc4)c3)n1)C(=O)N(C(C)C)C2=O	0.009 µM	131 µL/min/mg	–	–
Cc1cc2c(c(Sc3ccc(C)c(NS(=O)(=O)c4ccc(Cl)cc4)c3)n1)C(=O)N(C(C)C)C2=O	0.224 µM	–	85%	–
Cc1cc2c(c(Oc3cccc(NS(=O)(=O)c4ccc(Cl)cc4)c3)n1)C(=O)N(C)C2=O	0.023 µM	–	122%	–
Cc1cc2c(c(Oc3cc(NS(=O)(=O)c4ccc(Cl)cc4)ccc3F)n1)C(=O)N(C(C)C)C2=O	0.016 µM	84 µL/min/mg	–	Activity [5]: Not Active; EC50 [6]: 2.05 µM; inhibition (INH) [7]: Not Active; EC50 [8]: 0.073 µM; clearance [9]: 11.8 mL/min/kg; fraction unbound [10]: < 0.01; Vd [11]: 1.1 L/kg; bioavailability [12]: 29%; fraction unbound [13]: < 0.01; Efficacy [14]: 102%; half-life [15]: 5.6 h; bioavailability [16]: 95%; half-life [17]: 1.5 h; clearance [18]: 7.5 mL/min/kg; Vd [19]: 1.5 L/kg; microsomal CLint at 1 µM [20]: 29 µL/min/mg; remaining at 0.5 h, 1 µM [21]: 88%; EC50 [22]: 1.9 µM; Activity [23]: Not Active
Cc1cc2c(c(Oc3cccc(NS(=O)(=O)c4ccc(Cl)cc4)c3)n1)C(=O)N(C1CCCC1)C2=O	0.069 µM	–	95%	–
Cc1cc2c(c(Oc3cccc(NS(=O)(=O)c4ccc(Cl)cc4)c3F)n1)C(=O)N(C(C)C)C2=O	0.493 µM	–	–	–
Cc1cc2c(c(Oc3cccc(NS(=O)(=O)c4ccc(Cl)cc4)c3)n1)C(=O)NC2=O	0.121 µM	–	109%	–
Cc1cc2c(c(Nc3ccc(C)c(NS(=O)(=O)c4ccc(Cl)cc4)c3)n1)C(=O)N(C(C)C)C2=O	0.382 µM	–	81%	–
Cc1cc2c(c(Oc3cccc(NS(=O)(=O)c4ccc(Cl)cc4)c3)n1)C(=O)N(C(C)C)C2=O	0.013 µM	250 µL/min/mg	99%	clearance [24]: 80 mL/min/kg; remaining at 0.5 h, 1 µM [25]: 15%
COc1cc2c(c(Oc3cccc(NS(=O)(=O)c4ccc(Cl)cc4)c3)n1)C(=O)N(C1CC1)C2=O	0.019 µM	–	97%	–
Cc1cc2c(c(Oc3cc(F)cc(NS(=O)(=O)c4ccc(Cl)cc4)c3)n1)C(=O)N(C(C)C)C2=O	0.357 µM	–	–	–
CC(C)OC(=O)N1CCC(Oc2ncnc3c2cnn3-c2ccc(S(C)(=O)=O)cc2)CC1	0.041 µM	–	–	–
Cc1cc2c(c(Sc3cccc(NS(=O)(=O)c4ccc(Cl)cc4)c3)n1)C(=O)N(C(C)C)C2=O	0.019 µM	–	76%	–
Cc1cc2c(c(Oc3cccc(NC(=O)c4ccc(Cl)cc4)c3)n1)C(=O)N(C(C)C)C2=O	> 30 µM	40 µL/min/mg	–	–
Cc1cc2c(c(Oc3cccc(S(=O)(=O)Nc4ccc(Cl)cc4)c3)n1)C(=O)N(C(C)C)C2=O	0.238 µM	–	–	–
Cc1cc2c(c(Oc3cc(NS(=O)(=O)c4ccc(Cl)cc4)ccc3Cl)n1)C(=O)N(C(C)C)C2=O	0.033 µM	29 µL/min/mg	–	clearance [24]: 3.67 mL/min/kg
Cc1cc2c(c(Oc3cccc(NS(=O)(=O)c4ccc(Cl)cc4)c3)n1)C(=O)N(C1CC1)C2=O	0.015 µM	–	111%	–

Reference: ChEMBL document CHEMBL3102800, “Discovery and optimization of N-(3-(1,3-dioxo-2,3-dihydro-1H-pyrrolo[3,4-c]pyridin-4-yloxy)phenyl)benzenesulfonamides as novel GPR119 agonists” (Bioorg Med Chem Lett, 2014)
